According to patent US20110160146A1, “Conjungation of Small Molecules to Octaarginine Transporters for Overcoming Multi-Drug Resistance” (National Institute of Health (NIH), priority 2008, published 2011):
pIC50: −log10 of the molar value. Non-standard residues stand in square brackets, D forms with d. Residues, ends and D or L forms follow the SMILES beside them. *: point of attachment. Paclitaxel(2'-OCO(CH2)3S) = CC(=O)O[C@H]1C(=O)[C@@]2(C)[C@H]([C@H](OC(=O)c3ccccc3)[C@]3(O)C[C@H](OC(=O)[C@H](OC(=O)CCCS*)[C@@H](NC(=O)c4ccccc4)c4ccccc4)C(C)=C1C3(C)C)[C@]1(OC(C)=O)CO[C@@H]1C[C@@H]2O; X2 = CC(=O)O[C@H]1C(=O)[C@@]2(C)[C@H]([C@H](OC(=O)c3ccccc3)[C@]3(O)C[C@H](OC(=O)[C@H](OC(=O)OCCS*)[C@@H](NC(=O)c4ccccc4)c4ccccc4)C(C)=C1C3(C)C)[C@]1(OC(C)=O)CO[C@@H]1C[C@@H]2O; X1 = CC(=O)O[C@H]1C(=O)[C@]2(C)[C@@H](OC(=O)CCCS*)C[C@H]3OC[C@@]3(OC(C)=O)[C@H]2[C@H](OC(=O)c2ccccc2)[C@]2(O)C[C@H](OC(=O)[C@H](O)[C@@H](NC(=O)c3ccccc3)c3ccccc3)C(C)=C1C2(C)C; X3 = O=C(OCCCS*)Oc1ccc(-c2cn3c(=O)c(Cc4ccccc4)nc-3c(Cc3ccccc3)[nH]2)cc1

How the values were obtained:
[1] = Hydrolytic stability (HBS, pH 7.4, 37° C.); format: physicochemical
Protocol: A conjugate in which a drug to be delivered and a transporter are linked by a specifically cleavable or specifically releasable linker will have a half-life. The term “half-life” in this context refers to the amount of time required for one half of the amount of conjugate to become dissociated to release the free drug. The “accelerated” (37° C.) hydrolytic half-lives of the conjugates ranged from 19 to 97 hours, extending well beyond the incubation times (≦20 minutes) used for cell assays. Stabilities of the conjugates as solids at room temperature extend for months. […] The half-life of a conjugate can be “tuned” or modified, according to the invention, as described below.
The “accelerated” (37° C.) hydrolytic half-lives of the tetra- and octaarginine conjugates ranged from 19 to 97 hours, extending well beyond the incubation times (s 20 minutes) used for cell assays. Stability as a solid at room temperature extends for months. […] The activities of various conjugate-linker combinations were evaluated using a panel of human cancer cells, leading to the identification of ester-linked conjugates 2a and 3a as preferred candidates (Table 2).

MCF-7 = experiment: cells; details: read-out: IC50 concentration; MCF-7; 20 min incubation, washed, 72 hr drug-free media
Protocol: (§1) After 72 hours, the cytotoxicity of the relevant compound was determined by an MTT based assay.
(§2) Cell Lines; SKOV-3 cells were obtained from ATCC; UCI-101 and UCI-107 cell lines were obtained from Drs. P. DiSaia and A. Manetta, University of California; MCF-7 and MCF-7-Pgp were obtained from Dr. D. Piwnica-Worms, Washington University; OVCA429, OVCA433 and the taxane resistant derivatives of these cells (OVCA429T, OVCA429TxT, OVCA433T and OVCA433TxT) were obtained from Dr. B. Sikic, Stanford University. All cells were grown in DMEM with 10% FBS.
(§3) Cell Cytotoxicity Assay. The cytotoxicity of relevant compounds was determined by IC50 assay. Cells were seeded overnight into 96-well plates, and then incubated with a serial dilution of the indicated compound for 20 min, before washing twice with fresh media, and incubation at 37° C. for 72 hr in drug-free media. The IC50 values were determined as the concentration of compound required to inhibit the viability of the cell layer by 50% relative to untreated, and cell-free control wells (100 and 0% viability respectively) determined from semi-logarithmic dose response curves. […] Bioluminescence was determined using an IVIS 50 system (Caliper Life Sciences, Alameda, Calif.). Each compound and dilution was tested in triplicate per experiment, with each experiment reproduced three times.

OVCA 429 = experiment: cells; details: read-out: IC50 concentration; OVCA 429; 20 min incubation, washed, 72 hr drug-free media
Protocol: as §1, §2, §3

OVCA 433 = experiment: cells; details: read-out: IC50 concentration; OVCA 433; 20 min incubation, washed, 72 hr drug-free media
Protocol: as §1, §2, §3

SKOV-3 = experiment: cells; details: read-out: IC50 concentration; SKOV-3; 20 min incubation, washed, 72 hr drug-free media
Protocol: as §1, §2, §3

UCI-101 luc = experiment: cells; details: read-out: IC50 concentration; UCI-101 luc; 20 min incubation, washed, 72 hr drug-free media; MTT assay or luciferase activity
Protocol: as §1, §2, §3

UCI-107 luc = experiment: cells; details: read-out: IC50 concentration; UCI-107 luc; 20 min incubation, washed, 72 hr drug-free media; MTT assay or luciferase activity
Protocol: as §1, §2, §3

OVCA 429TxT = experiment: cells; details: read-out: IC50 concentration; OVCA 429TxT (taxotere selected); 20 min incubation, washed, 72 hr drug-free media
Protocol: as §1
(§4) Within the panel of human cancer cells, there were three sets of related sensitive and resistant cell lines, the latter based wholly or in part on Pgp-mediated efflux. These resistant lines were either created through stable transfection of MCF-7 cells with Pgp (MCF-7-Pgp), or by selection through exposure of OVCA429 and OVCA433 cells to taxol (OVCA429T and OVCA433T)^19 or taxotere (OVCA429TxT and OVCA433TxT), creating a complex MDR phenotype including Pgp upregulation.
as §2, §3

OVCA 429T = experiment: cells; details: read-out: IC50 concentration; OVCA 429T (taxol resistant); 20 min incubation, washed, 72 hr drug-free media
Protocol: as §1, §4, §2, §3

OVCA 433TxT = experiment: cells; details: read-out: IC50 concentration; OVCA 433TxT (taxotere selected); 20 min incubation, washed, 72 hr drug-free media
Protocol: as §1, §4, §2, §3

OVCA 433T = experiment: cells; details: read-out: IC50 concentration; OVCA 433T (taxol resistant); 20 min incubation, washed, 72 hr drug-free media
Protocol: as §1, §4, §2, §3

MCF-7-pgp = experiment: Cell cytotoxicity assay (IC50), MCF-7-pgp; details: read-out: IC50 concentration; MCF-7-pgp (Pgp transfected); 20 min incubation, washed, 72 hr drug-free media
Protocol: as §1, §4, §2, §3

OVCA429 cells = experiment: Cell cycle assay, OVCA429; format: cell-based, human; parameters: dose or concentration left out as unconfirmed; details: analysis after 24 hr, 7-AAD flow cytometry
Protocol: FIG. 1. Mechanisms of action of octaarginine taxol conjugates. (a) Tubulin polymerization assay.
The percentage of cells in G2/M was recorded. Data from 3 separate experiments were combined.
Statistical significance was determined as p<0.05.

[2] = Protocol: FIG. 2. Effect of octaarginine (r8) conjugation on biodistribution of drug. […] (a) Representative image of treated mice at 40 min post injection. (b) Total signal per mouse at times post injection (average of two experiments).
Biolumninescence signal was determined at regular time points immediately after injection using an IVIS 200 system (Caliper Life Sciences, Alameda, Calif.).

SMILES: CC(=O)N[C@H](CSSCCCC(=O)O[C@H]1C[C@H]2OC[C@@]2(OC(C)=O)[C@H]2[C@H](OC(=O)c3ccccc3)[C@]3(O)C[C@H](OC(=O)[C@H](O)[C@@H](NC(=O)c4ccccc4)c4ccccc4)C(C)=C([C@@H](OC(C)=O)C(=O)[C@]12C)C3(C)C)C(=O)N[C@H](CCCNC(=N)N)C(=O)N[C@H](CCCNC(=N)N)C(=O)N[C@H](CCCNC(=N)N)C(=O)N[C@H](CCCNC(=N)N)C(=O)N[C@H](CCCNC(=N)N)C(=O)N[C@H](CCCNC(=N)N)C(=O)N[C@H](CCCNC(=N)N)C(=O)N[C@H](CCCNC(=N)N)C(N)=O [3a, Taxol C7 ester octaarginine conjugate] (Ac-[dC](X1)[dR][dR][dR][dR][dR][dR][dR][dR]-NH2)
- half-life [1]: 97 h
- pIC50 (MCF-7): 6.84
- pIC50 (OVCA 429): 6.90
- pIC50 (OVCA 433): 7.21
- pIC50 (SKOV-3): 7.62
- pIC50 (UCI-101 luc): 6.77
- pIC50 (UCI-107 luc): 6.63
- pIC50 (OVCA 429TxT): 7.03
- pIC50 (OVCA 429T): 6.65
- pIC50 (OVCA 433TxT): 5.89
- pIC50 (OVCA 433T): 7.02
- pIC50 (MCF-7-pgp): 7.08

SMILES: CC(=O)N[C@H](CSSCCCC(=O)O[C@H]1C[C@H]2OC[C@@]2(OC(C)=O)[C@H]2[C@H](OC(=O)c3ccccc3)[C@]3(O)C[C@H](OC(=O)[C@H](O)[C@@H](NC(=O)c4ccccc4)c4ccccc4)C(C)=C([C@@H](OC(C)=O)C(=O)[C@]12C)C3(C)C)C(=O)N[C@H](CCCNC(=N)N)C(=O)N[C@H](CCCNC(=N)N)C(=O)N[C@H](CCCNC(=N)N)C(=O)N[C@H](CCCNC(=N)N)C(N)=O [3b, Taxol C7 ester tetraarginine conjugate]
- half-life [1]: 68 h

SMILES: CC(=O)N[C@H](CSSCCCC(=O)O[C@@H](C(=O)O[C@H]1C[C@@]2(O)[C@@H](OC(=O)c3ccccc3)[C@@H]3[C@]4(OC(C)=O)CO[C@@H]4C[C@H](O)[C@@]3(C)C(=O)[C@H](OC(C)=O)C(=C1C)C2(C)C)[C@@H](NC(=O)c1ccccc1)c1ccccc1)C(=O)N[C@H](CCCNC(=N)N)C(=O)N[C@H](CCCNC(=N)N)C(=O)N[C@H](CCCNC(=N)N)C(=O)N[C@H](CCCNC(=N)N)C(N)=O [2b, Taxol C2′ ester tetraarginine conjugate]
- half-life [1]: 19 h
- percentage of cells in the G2/M phase relative to taxol (OVCA429 cells): significantly greater percentage

SMILES: CC(=O)N[C@H](CSSCCOC(=O)O[C@@H](C(=O)O[C@H]1C[C@@]2(O)[C@@H](OC(=O)c3ccccc3)[C@@H]3[C@]4(OC(C)=O)CO[C@@H]4C[C@H](O)[C@@]3(C)C(=O)[C@H](OC(C)=O)C(=C1C)C2(C)C)[C@@H](NC(=O)c1ccccc1)c1ccccc1)C(=O)N[C@H](CCCNC(=N)N)C(=O)N[C@H](CCCNC(=N)N)C(=O)N[C@H](CCCNC(=N)N)C(=O)N[C@H](CCCNC(=N)N)C(N)=O [4b, Taxol C2′ tetraarginine conjugate]
- half-life [1]: 26 h

SMILES: CC(=O)N[C@H](CSSCCCCOC(=O)Oc1ccc2nc(C3=N[C@@H](C(=O)O)CS3)sc2c1)C(=O)N[C@H](CCCNC(=N)N)C(=O)N[C@H](CCCNC(=N)N)C(=O)N[C@H](CCCNC(=N)N)C(=O)N[C@H](CCCNC(=N)N)C(=O)N[C@H](CCCNC(=N)N)C(=O)N[C@H](CCCNC(=N)N)C(=O)N[C@H](CCCNC(=N)N)C(=O)N[C@H](CCCNC(=N)N)C(N)=O [compound 7, Luciferin octaarginine conjugate]
- half-life [1]: 30 h
- calculated area under the curve (total light production) ([2]; intraperitoneal injection, luciferase transgenic mice): similar
- biodistribution after intraperitoneal injection ([2]; transgenic mice ubiquitously expressing Firefly luciferase, equimolar to 5 mg/kg): did not distribute throughout the body, remaining instead near the site of administration

SMILES: CC(=O)N[C@H](CSSCCCC(=O)O[C@@H](C(=O)O[C@H]1C[C@@]2(O)[C@@H](OC(=O)c3ccccc3)[C@@H]3[C@]4(OC(C)=O)CO[C@@H]4C[C@H](O)[C@@]3(C)C(=O)[C@H](OC(C)=O)C(=C1C)C2(C)C)[C@@H](NC(=O)c1ccccc1)c1ccccc1)C(=O)N[C@H](CCCNC(=N)N)C(=O)N[C@H](CCCNC(=N)N)C(=O)N[C@H](CCCNC(=N)N)C(=O)N[C@H](CCCNC(=N)N)C(=O)N[C@H](CCCNC(=N)N)C(=O)N[C@H](CCCNC(=N)N)C(=O)N[C@H](CCCNC(=N)N)C(=O)N[C@H](CCCNC(=N)N)C(N)=O [2a, Taxol C2′ ester octaarginine conjugate] (Ac-[dC](Paclitaxel(2'-OCO(CH2)3S))[dR][dR][dR][dR][dR][dR][dR][dR]-NH2)
- half-life [1]: 23 h
- pIC50 (MCF-7): 7.40
- pIC50 (OVCA 429): 7.38
- pIC50 (OVCA 433): 7.68
- pIC50 (SKOV-3): 7.96
- pIC50 (UCI-101 luc): 7.24
- pIC50 (UCI-107 luc): 7.04
- pIC50 (OVCA 429TxT): 7.00
- pIC50 (OVCA 429T): 6.38
- pIC50 (OVCA 433TxT): 5.53
- pIC50 (OVCA 433T): 6.88
- pIC50 (MCF-7-pgp): 6.82

SMILES: CC(=O)N[C@H](CSSCCCOC(=O)Oc1ccc(-c2cn3c(=O)c(Cc4ccccc4)nc-3c(Cc3ccccc3)[nH]2)cc1)C(=O)N[C@H](CCCNC(=N)N)C(=O)N[C@H](CCCNC(=N)N)C(=O)N[C@H](CCCNC(=N)N)C(=O)N[C@H](CCCNC(=N)N)C(=O)N[C@H](CCCNC(=N)N)C(=O)N[C@H](CCCNC(=N)N)C(=O)N[C@H](CCCNC(=N)N)C(=O)N[C@H](CCCNC(=N)N)C(N)=O [compound 6, Coelenterazine octaarginine conjugate] (Ac-[dC](X3)[dR][dR][dR][dR][dR][dR][dR][dR]-NH2)
- half-life [1]: 0.117 h

SMILES: CC(=O)N[C@H](CSSCCOC(=O)O[C@@H](C(=O)O[C@H]1C[C@@]2(O)[C@@H](OC(=O)c3ccccc3)[C@@H]3[C@]4(OC(C)=O)CO[C@@H]4C[C@H](O)[C@@]3(C)C(=O)[C@H](OC(C)=O)C(=C1C)C2(C)C)[C@@H](NC(=O)c1ccccc1)c1ccccc1)C(=O)N[C@H](CCCNC(=N)N)C(=O)N[C@H](CCCNC(=N)N)C(=O)N[C@H](CCCNC(=N)N)C(=O)N[C@H](CCCNC(=N)N)C(=O)N[C@H](CCCNC(=N)N)C(=O)N[C@H](CCCNC(=N)N)C(=O)N[C@H](CCCNC(=N)N)C(=O)N[C@H](CCCNC(=N)N)C(N)=O [4a, Taxol C2′ octaarginine conjugate] (Ac-[dC](X2)[dR][dR][dR][dR][dR][dR][dR][dR]-NH2)
- half-life [1]: 32 h
